In the kinase profiling compilation of Christmann-Franck et al. (2016):

Key:
Assay in all cases: KINOMEscan competition binding
Conditions in all cases: compound 10.0 µM
ACVR2B (human) = ACVR2B (human) (UniProt Q13705)
ADCK3 (human) = ADCK3 (human) (UniProt Q8NI60)
CAMK2G (human) = CAMK2G (human) (UniProt Q13555)
CDC2L2 (human) = CDC2L2 (human) (UniProt Q9UQ88)
CDK3 (human) = CDK3 (human) (UniProt Q00526)
CDK9 (human) = CDK9 (human) (UniProt P50750)
CHEK2 (human) = CHEK2 (human) (UniProt O96017)
CIT (human) = CIT (human) (UniProt O14578)
CSNK1G1 (human) = CSNK1G1 (human) (UniProt Q9HCP0)
CSNK1G3 (human) = CSNK1G3 (human) (UniProt Q9Y6M4)
DAPK1 (human) = DAPK1 (human) (UniProt P53355)
DAPK2 (human) = DAPK2 (human) (UniProt Q9UIK4)
EPHA4 (human) = EPHA4 (human) (UniProt P54764)
EPHA5 (human) = EPHA5 (human) (UniProt P54756)
Sequence of EPHA5 (human) (P54756 whole entry, looked up): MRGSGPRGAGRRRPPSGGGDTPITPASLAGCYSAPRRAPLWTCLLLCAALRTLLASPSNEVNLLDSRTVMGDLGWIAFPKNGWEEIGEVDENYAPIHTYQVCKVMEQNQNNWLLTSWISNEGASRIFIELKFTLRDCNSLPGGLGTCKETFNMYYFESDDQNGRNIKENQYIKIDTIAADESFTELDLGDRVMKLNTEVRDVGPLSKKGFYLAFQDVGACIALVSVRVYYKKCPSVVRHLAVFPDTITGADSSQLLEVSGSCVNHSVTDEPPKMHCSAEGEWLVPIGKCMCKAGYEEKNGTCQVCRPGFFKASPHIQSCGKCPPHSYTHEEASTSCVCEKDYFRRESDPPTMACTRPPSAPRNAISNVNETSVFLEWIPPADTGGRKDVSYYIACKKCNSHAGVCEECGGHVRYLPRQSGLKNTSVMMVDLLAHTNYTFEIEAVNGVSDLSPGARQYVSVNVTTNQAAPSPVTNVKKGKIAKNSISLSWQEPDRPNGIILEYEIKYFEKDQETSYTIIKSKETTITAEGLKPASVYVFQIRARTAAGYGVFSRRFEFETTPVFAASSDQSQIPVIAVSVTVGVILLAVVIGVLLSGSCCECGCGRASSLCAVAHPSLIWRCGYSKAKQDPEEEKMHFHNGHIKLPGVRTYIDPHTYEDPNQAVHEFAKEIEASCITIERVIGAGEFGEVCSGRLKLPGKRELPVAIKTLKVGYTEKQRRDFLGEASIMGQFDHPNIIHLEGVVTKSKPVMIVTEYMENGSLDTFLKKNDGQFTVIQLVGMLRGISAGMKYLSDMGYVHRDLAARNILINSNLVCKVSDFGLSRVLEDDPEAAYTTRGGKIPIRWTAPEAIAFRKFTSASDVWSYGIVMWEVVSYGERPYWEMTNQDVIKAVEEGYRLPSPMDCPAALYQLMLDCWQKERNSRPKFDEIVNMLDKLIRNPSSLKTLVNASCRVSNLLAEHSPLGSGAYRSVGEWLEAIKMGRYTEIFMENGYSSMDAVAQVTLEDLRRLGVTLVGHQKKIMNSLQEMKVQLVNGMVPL

FRK (human) = FRK (human) (UniProt P42685)
Sequence of FRK (human) (P42685 whole entry, looked up): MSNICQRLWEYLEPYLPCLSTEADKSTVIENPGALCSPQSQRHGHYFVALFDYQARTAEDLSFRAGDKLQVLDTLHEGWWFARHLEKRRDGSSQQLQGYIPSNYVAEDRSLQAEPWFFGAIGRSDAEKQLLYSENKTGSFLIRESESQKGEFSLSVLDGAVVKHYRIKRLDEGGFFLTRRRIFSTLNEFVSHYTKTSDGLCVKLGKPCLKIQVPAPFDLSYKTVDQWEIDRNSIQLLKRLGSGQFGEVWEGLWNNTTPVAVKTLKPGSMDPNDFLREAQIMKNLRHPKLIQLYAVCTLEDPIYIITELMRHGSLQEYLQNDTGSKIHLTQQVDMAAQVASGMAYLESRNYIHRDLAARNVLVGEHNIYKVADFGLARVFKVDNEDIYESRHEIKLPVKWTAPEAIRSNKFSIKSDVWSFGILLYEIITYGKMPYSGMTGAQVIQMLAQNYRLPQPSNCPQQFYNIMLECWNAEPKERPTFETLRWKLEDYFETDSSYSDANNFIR

[1] = target: JAK1 JH1 catalytic (human) (UniProt P23458)
LATS2 (human) = LATS2 (human) (UniProt Q9NRM7)
LTK (human) = LTK (human) (UniProt P29376)
MAP3K11 (human) = MAP3K11 (human) (UniProt Q16584)
MAP3K5 (human) = MAP3K5 (human) (UniProt Q99683)
MAP4K4 (human) = MAP4K4 (human) (UniProt O95819)
MAPK1 (human) = MAPK1 (human) (UniProt P28482)
MAPK4 (human) = MAPK4 (human) (UniProt P31152)
MAPK9 (human) = MAPK9 (human) (UniProt P45984)
MINK1 (human) = MINK1 (human) (UniProt Q8N4C8)
PAK1 (human) = PAK1 (human) (UniProt Q13153)
PAK6 (human) = PAK6 (human) (UniProt Q9NQU5)
PRKD1 (human) = PRKD1 (human) (UniProt Q15139)
PTK2B (human) = PTK2B (human) (UniProt Q14289)
RIOK1 (human) = RIOK1 (human) (UniProt Q9BRS2)
Sequence of RIOK1 (human) (Q9BRS2 whole entry, looked up): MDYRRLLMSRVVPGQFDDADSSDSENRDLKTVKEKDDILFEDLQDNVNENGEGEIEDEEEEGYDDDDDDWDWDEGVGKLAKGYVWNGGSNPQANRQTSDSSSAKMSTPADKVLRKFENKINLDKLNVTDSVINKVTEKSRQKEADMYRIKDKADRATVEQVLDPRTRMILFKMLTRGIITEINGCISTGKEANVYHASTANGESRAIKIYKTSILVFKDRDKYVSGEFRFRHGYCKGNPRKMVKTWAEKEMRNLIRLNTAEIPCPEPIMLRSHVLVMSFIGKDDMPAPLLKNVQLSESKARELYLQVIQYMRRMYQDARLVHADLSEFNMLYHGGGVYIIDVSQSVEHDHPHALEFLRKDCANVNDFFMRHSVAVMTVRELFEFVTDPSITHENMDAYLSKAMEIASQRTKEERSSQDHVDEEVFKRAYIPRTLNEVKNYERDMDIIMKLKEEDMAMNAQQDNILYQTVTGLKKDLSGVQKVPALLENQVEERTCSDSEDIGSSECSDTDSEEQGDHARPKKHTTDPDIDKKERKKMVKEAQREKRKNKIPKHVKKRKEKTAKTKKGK

RIOK3 (human) = RIOK3 (human) (UniProt O14730)
RIPK4 (human) = RIPK4 (human) (UniProt P57078)
RPS6KA3 KD1 (human) = RPS6KA3 KD1 (human) (UniProt P51812)
Sequence of RPS6KA3 KD1 (human) (P51812 whole entry, looked up): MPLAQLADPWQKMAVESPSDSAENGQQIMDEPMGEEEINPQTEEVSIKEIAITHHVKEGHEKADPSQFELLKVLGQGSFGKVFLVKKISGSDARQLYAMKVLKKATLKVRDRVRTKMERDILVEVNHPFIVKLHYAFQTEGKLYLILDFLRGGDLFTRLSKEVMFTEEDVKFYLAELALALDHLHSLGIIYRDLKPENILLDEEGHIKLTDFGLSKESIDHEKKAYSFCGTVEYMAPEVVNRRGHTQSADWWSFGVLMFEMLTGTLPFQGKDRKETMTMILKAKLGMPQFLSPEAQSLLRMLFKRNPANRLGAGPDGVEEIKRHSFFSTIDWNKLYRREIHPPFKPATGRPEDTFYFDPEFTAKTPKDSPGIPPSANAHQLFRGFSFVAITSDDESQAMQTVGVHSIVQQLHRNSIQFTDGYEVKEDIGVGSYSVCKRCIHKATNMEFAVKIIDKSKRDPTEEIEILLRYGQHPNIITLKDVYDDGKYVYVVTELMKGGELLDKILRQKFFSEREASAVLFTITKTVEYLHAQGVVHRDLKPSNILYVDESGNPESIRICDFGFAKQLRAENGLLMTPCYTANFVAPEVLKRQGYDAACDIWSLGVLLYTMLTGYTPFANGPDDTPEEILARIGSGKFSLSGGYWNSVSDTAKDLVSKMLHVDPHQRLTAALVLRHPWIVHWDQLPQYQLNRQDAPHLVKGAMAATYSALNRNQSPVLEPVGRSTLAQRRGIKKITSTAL

RPS6KA6 KD2 (human) = RPS6KA6 KD2 (human) (UniProt Q9UK32)
STK10 (human) = STK10 (human) (UniProt O94804)
STK25 (human) = STK25 (human) (UniProt O00506)
STK32B (human) = STK32B (human) (UniProt Q9NY57)
TGFBR2 (human) = TGFBR2 (human) (UniProt P37173)
TNK1 (human) = TNK1 (human) (UniProt Q13470)
TXK (human) = TXK (human) (UniProt P42681)

Sequence of CDC2L2 (human) (Q9UQ88 whole entry, looked up): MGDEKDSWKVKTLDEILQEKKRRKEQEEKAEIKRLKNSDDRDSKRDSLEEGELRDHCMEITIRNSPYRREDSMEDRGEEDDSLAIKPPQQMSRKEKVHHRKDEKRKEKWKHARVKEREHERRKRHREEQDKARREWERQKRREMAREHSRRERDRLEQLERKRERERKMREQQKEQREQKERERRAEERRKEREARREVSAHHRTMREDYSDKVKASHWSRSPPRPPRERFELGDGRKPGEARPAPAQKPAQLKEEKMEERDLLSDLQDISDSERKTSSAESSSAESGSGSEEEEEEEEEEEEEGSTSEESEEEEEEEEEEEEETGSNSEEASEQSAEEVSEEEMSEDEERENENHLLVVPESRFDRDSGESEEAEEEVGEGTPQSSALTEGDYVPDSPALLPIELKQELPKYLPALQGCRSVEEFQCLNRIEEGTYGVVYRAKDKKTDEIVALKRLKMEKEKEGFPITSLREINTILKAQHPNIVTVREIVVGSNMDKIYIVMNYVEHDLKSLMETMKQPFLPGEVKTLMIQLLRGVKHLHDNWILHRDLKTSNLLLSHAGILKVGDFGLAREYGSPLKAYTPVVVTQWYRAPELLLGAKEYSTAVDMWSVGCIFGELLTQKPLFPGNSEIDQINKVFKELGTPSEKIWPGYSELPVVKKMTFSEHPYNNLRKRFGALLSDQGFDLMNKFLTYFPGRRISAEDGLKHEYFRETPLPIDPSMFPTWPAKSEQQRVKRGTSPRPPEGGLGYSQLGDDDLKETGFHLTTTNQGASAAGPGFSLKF
Sequence of ADCK3 (human) (Q8NI60 whole entry, looked up): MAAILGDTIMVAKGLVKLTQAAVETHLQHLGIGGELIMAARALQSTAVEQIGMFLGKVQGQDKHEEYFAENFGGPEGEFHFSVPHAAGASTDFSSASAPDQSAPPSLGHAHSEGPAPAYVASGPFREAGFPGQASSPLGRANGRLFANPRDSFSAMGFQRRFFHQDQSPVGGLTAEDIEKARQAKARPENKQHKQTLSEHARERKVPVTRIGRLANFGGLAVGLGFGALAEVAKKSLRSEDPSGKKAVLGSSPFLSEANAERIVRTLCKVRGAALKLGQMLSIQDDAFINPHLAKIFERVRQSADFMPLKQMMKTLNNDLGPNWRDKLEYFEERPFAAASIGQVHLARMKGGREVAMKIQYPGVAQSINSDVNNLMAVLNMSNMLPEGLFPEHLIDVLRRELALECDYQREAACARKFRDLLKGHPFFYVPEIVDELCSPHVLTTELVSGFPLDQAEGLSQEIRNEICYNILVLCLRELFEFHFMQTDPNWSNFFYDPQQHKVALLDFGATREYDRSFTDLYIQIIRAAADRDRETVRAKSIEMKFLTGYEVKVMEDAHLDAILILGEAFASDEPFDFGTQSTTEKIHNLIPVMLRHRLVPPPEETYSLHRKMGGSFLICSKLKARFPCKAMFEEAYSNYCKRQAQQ
Sequence of ACVR2B (human) (Q13705 whole entry, looked up): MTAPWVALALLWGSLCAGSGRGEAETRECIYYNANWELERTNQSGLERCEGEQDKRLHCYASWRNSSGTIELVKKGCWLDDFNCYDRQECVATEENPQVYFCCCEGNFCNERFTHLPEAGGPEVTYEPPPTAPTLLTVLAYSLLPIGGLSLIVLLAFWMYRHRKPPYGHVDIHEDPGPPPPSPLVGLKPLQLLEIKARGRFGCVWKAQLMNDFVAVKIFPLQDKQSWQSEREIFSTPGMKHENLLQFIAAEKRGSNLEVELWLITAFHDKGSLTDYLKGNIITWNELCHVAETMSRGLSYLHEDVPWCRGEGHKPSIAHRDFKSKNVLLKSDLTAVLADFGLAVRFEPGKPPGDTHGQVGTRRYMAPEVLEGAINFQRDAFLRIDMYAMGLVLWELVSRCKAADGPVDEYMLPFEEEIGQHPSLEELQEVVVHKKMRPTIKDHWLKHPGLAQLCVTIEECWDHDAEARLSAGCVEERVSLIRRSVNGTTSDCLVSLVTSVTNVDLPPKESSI

| SMILES | kinase still bound, per cent of control (ACVR2B (human)) [%] | kinase still bound, per cent of control (ADCK3 (human)) [%] | kinase still bound, per cent of control (CAMK2G (human)) [%] | kinase still bound, per cent of control (CDC2L2 (human)) [%] | kinase still bound, per cent of control (CDK3 (human)) [%] | kinase still bound, per cent of control (CDK9 (human)) [%] | kinase still bound, per cent of control (CHEK2 (human)) [%] | kinase still bound, per cent of control (CIT (human)) [%] | kinase still bound, per cent of control (CSNK1G1 (human)) [%] | kinase still bound, per cent of control (CSNK1G3 (human)) [%] | kinase still bound, per cent of control (DAPK1 (human)) [%] | kinase still bound, per cent of control (DAPK2 (human)) [%] | kinase still bound, per cent of control (EPHA4 (human)) [%] | kinase still bound, per cent of control (EPHA5 (human)) [%] | kinase still bound, per cent of control (FRK (human)) [%] | kinase still bound, per cent of control [1] [%] | kinase still bound, per cent of control (LATS2 (human)) [%] | kinase still bound, per cent of control (LTK (human)) [%] | kinase still bound, per cent of control (MAP3K11 (human)) [%] | kinase still bound, per cent of control (MAP3K5 (human)) [%] | also measured |
| --- | --- | --- | --- | --- | --- | --- | --- | --- | --- | --- | --- | --- | --- | --- | --- | --- | --- | --- | --- | --- | --- |
| O=C1Nc2ccc(I)cc2/C1=C/c1cc(Br)c(O)c(Br)c1 | 83 | 100 | 40 | 73 | 90 | 93 | 12 | 5.6 | 69 | 94 | 6.2 | 1.9 | 100 | 91 | 45 | 100 | 81 | 47 | 38 | 100 | kinase still bound, per cent of control (MAP4K4 (human)): 4.2%; kinase still bound, per cent of control (MAPK1 (human)): 87%; kinase still bound, per cent of control (MAPK4 (human)): 100%; kinase still bound, per cent of control (MAPK9 (human)): 72%; kinase still bound, per cent of control (MINK1 (human)): 2.8%; kinase still bound, per cent of control (PAK1 (human)): 100%; kinase still bound, per cent of control (PAK6 (human)): 73%; kinase still bound, per cent of control (PRKD1 (human)): 100%; kinase still bound, per cent of control (PTK2B (human)): 81%; kinase still bound, per cent of control (RIOK1 (human)): 14%; kinase still bound, per cent of control (RIOK3 (human)): 17%; kinase still bound, per cent of control (RIPK4 (human)): 76%; kinase still bound, per cent of control (RPS6KA3 KD1 (human)): 36%; kinase still bound, per cent of control (RPS6KA6 KD2 (human)): 1.7%; kinase still bound, per cent of control (STK10 (human)): 100%; kinase still bound, per cent of control (STK25 (human)): 100%; kinase still bound, per cent of control (STK32B (human)): 100%; kinase still bound, per cent of control (TGFBR2 (human)): 56%; kinase still bound, per cent of control (TNK1 (human)): 100%; kinase still bound, per cent of control (TXK (human)): 100% |
| CCCS(=O)(=O)Nc1ccc(F)c(C(=O)c2c[nH]c3ncc(-c4ccc(Cl)cc4)cc23)c1F | 27 | 100 | 95 | 91 | 94 | 100 | 100 | 30 | 100 | 100 | 83 | 95 | 100 | 98 | 16 | 28 | 75 | 100 | 81 | 100 | kinase still bound, per cent of control (MAP4K4 (human)): 48%; kinase still bound, per cent of control (MAPK1 (human)): 100%; kinase still bound, per cent of control (MAPK4 (human)): 100%; kinase still bound, per cent of control (MAPK9 (human)): 50%; kinase still bound, per cent of control (MINK1 (human)): 38%; kinase still bound, per cent of control (PAK1 (human)): 95%; kinase still bound, per cent of control (PAK6 (human)): 74%; kinase still bound, per cent of control (PRKD1 (human)): 8.2%; kinase still bound, per cent of control (PTK2B (human)): 100%; kinase still bound, per cent of control (RIOK1 (human)): 100%; kinase still bound, per cent of control (RIOK3 (human)): 100%; kinase still bound, per cent of control (RIPK4 (human)): 91%; kinase still bound, per cent of control (RPS6KA3 KD1 (human)): 76%; kinase still bound, per cent of control (RPS6KA6 KD2 (human)): 75%; kinase still bound, per cent of control (STK10 (human)): 16%; kinase still bound, per cent of control (STK25 (human)): 100%; kinase still bound, per cent of control (STK32B (human)): 100%; kinase still bound, per cent of control (TGFBR2 (human)): 2.5%; kinase still bound, per cent of control (TNK1 (human)): 100%; kinase still bound, per cent of control (TXK (human)): 59% |
